Results from US10239869B2, “Sulfonamide compounds as voltage-gated sodium channel modulators” (LUPIN LIMITED, priority 2015, dated 2019).
Read-outs that look alike come from different tables or passages of the source.

How the values were obtained:
[1] = molecular target: Nav 1.5 (Homo sapiens (Human), UniProt Q14524); test: Inhibition of sodium channels, Red Membrane Potential Dye FLIPR assay, veratridine depolarization; type: cell-based; conditions: HEK-293 cells overexpressing the channel; for inhibition at 10 µM: HEK-293 cells overexpressing Nav 1.5
[2] = molecular target: Nav 1.7 (Homo sapiens (Human), UniProt Q15858); test: as above; type: cell-based; conditions: HEK-293 cells overexpressing the channel
[3] = read-out: Nav1.5 IC50 (bound given in μM)

Nav 1.7, sequence (Q15858 whole entry): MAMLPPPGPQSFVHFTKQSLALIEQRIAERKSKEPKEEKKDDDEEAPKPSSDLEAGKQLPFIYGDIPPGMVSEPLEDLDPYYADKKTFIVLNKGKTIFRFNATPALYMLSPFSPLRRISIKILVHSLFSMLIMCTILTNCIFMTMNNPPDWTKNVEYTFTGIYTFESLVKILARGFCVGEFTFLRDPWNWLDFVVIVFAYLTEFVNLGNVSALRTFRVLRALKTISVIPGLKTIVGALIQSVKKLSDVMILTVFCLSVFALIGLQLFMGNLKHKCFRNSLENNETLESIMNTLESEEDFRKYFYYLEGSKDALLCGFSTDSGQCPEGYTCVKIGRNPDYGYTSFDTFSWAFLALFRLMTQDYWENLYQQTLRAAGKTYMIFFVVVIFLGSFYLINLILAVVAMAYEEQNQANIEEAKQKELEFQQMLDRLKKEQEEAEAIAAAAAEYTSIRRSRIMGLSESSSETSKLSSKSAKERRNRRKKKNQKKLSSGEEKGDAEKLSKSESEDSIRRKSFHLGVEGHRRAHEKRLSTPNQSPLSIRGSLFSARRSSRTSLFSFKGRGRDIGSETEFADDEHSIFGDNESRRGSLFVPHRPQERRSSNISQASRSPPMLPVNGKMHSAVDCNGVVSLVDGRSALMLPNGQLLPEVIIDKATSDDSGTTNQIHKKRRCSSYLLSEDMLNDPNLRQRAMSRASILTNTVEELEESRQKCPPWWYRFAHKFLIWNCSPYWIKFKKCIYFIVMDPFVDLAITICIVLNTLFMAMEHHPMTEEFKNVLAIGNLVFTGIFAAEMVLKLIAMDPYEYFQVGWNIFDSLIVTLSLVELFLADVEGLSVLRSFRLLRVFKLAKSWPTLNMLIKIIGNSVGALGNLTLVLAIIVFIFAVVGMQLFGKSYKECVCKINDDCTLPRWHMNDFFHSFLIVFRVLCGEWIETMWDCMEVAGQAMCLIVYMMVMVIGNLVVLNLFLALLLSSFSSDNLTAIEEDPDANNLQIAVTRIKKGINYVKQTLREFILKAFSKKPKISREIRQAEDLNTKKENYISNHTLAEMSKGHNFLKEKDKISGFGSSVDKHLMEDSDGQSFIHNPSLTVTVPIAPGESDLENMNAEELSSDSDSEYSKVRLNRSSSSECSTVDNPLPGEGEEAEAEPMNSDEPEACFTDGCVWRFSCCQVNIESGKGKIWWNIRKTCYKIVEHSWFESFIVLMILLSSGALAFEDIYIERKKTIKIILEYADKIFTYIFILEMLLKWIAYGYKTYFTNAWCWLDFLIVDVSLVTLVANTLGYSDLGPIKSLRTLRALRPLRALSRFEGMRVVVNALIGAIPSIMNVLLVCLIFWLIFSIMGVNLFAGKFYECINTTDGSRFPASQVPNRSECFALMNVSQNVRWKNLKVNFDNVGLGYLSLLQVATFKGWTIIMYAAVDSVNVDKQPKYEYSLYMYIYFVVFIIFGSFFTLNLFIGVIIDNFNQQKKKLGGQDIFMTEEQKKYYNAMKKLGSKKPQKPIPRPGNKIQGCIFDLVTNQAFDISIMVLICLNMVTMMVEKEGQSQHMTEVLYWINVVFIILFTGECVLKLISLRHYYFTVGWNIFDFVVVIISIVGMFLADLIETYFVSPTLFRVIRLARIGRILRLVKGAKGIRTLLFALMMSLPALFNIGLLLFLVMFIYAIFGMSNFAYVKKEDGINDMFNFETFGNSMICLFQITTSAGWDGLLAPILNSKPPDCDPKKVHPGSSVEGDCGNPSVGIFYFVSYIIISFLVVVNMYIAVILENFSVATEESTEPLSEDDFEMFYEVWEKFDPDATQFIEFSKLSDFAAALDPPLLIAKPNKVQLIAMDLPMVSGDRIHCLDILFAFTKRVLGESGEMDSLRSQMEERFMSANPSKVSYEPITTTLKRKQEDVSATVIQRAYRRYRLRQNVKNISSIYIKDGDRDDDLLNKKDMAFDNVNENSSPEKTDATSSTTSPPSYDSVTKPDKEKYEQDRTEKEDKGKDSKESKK
Nav 1.5, sequence (Q14524 whole entry): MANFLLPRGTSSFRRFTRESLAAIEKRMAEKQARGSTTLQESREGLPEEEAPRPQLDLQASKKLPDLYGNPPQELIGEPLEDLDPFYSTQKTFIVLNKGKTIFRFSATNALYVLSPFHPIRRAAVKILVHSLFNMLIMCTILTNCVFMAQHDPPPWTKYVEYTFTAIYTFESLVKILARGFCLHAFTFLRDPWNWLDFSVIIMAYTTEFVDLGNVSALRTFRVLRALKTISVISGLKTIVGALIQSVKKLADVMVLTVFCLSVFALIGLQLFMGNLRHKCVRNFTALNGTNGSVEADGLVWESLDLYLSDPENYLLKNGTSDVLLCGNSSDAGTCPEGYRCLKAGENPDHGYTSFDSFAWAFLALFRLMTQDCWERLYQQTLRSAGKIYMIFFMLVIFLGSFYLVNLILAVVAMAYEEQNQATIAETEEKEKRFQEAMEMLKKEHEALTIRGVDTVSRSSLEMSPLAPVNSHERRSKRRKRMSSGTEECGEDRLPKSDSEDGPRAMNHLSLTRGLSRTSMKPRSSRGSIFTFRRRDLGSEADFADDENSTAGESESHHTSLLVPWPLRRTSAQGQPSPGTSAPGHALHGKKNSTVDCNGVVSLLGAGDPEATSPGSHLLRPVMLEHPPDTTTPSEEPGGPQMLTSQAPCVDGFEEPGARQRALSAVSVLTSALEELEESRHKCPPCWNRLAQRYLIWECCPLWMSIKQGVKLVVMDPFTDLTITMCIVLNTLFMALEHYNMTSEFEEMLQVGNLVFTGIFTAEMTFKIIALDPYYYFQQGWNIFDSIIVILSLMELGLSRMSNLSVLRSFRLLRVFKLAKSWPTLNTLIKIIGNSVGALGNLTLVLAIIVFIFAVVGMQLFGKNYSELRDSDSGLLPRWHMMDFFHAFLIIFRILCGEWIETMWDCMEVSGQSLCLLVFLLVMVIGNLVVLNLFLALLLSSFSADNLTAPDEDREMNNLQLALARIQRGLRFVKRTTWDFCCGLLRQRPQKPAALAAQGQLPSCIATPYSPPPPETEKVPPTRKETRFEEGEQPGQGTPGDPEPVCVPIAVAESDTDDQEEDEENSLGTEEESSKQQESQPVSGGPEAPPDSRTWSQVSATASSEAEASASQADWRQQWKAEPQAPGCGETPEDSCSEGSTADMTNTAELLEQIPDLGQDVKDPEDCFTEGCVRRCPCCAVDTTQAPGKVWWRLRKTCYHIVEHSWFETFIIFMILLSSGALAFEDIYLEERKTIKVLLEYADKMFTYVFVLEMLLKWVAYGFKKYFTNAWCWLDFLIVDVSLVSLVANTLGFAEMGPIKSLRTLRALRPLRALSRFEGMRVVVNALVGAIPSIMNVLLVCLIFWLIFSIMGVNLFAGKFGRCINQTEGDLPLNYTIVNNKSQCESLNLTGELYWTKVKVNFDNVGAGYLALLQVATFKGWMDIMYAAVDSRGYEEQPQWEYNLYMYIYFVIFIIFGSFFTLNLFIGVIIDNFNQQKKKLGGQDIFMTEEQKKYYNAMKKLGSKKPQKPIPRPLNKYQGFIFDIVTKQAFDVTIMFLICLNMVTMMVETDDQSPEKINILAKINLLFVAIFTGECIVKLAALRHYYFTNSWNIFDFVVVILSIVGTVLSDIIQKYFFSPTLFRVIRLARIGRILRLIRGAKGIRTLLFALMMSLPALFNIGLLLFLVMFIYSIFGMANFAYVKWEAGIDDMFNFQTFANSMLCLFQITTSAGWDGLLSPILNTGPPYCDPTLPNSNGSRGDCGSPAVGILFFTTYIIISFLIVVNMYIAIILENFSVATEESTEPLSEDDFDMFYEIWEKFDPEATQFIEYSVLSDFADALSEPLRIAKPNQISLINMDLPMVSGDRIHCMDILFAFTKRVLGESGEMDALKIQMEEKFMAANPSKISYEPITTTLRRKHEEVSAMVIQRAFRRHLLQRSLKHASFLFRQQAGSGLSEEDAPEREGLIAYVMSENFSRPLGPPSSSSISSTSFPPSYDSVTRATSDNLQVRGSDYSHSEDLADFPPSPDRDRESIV

Compound	IC50 ([2]; read-out: Nav1.7 IC50) [µM]	IC50 [1, 3] [µM]	further results
O=S(=O)(Nc1ncc(F)cn1)c1ccc2c(c1)OCC[C@@H]2c1ccc(C(F)(F)F)cc1CCCCF (racemic) [Example 164, (R/S)-4-(2-(4-fluorobutyl)-4-(trifluoromethyl)phenyl)-N-(5-fluoropyrimidin-2-yl)chroman-7-sulfonamide]	0.061		inhibition at 10 µM [1]: 81%
O=S(=O)(Nc1cccnn1)c1ccc2c(c1)OCC[C@@H]2c1ccc(C(F)(F)F)cc1CCCCF (racemic) [Example 166, (R/S)-4-(2-(4-fluorobutyl)-4-(trifluoromethyl)phenyl)-N-(pyridazin-3-yl)chroman-7-sulfonamide]	0.05		IC50 ([1]; read-out: Nav1.5 IC50): 0.134 µM
O=S(=O)(Nc1cccnn1)c1ccc2c(c1)OCC[C@@H]2c1ccc(C(F)(F)F)cc1OC1CCOCC1 [Example-175, (R&S)—N-(pyridazin-3-yl)-4-(2-((tetrahydro-2H-pyran-4-yl)oxy)-4-(trifluoromethyl)phenyl)chroman-7-sulfonamide]	0.248		IC50 ([1]; read-out: Nav1.5 IC50): 1.69 µM
O=S(=O)(Nc1cccnn1)c1ccc2c(c1)OCC[C@@H]2c1ccc(C(F)(F)F)cc1CCCF (racemic) [Example 161, (R/S)-4-(2-(3-fluoropropyl)-4-(trifluoromethyl)phenyl)-N-(pyridazin-3-yl)chroman-7-sulfonamide]	0.012		IC50 ([1]; read-out: Nav1.5 IC50): 1.35 µM
O=S(=O)(Nc1cccc(F)n1)c1ccc2c(c1)OCC[C@@H]2c1ccc(C(F)(F)F)cc1-n1cccn1 [Example 90, (S&R)-4-(2-(1H-pyrazol-1-yl)-4-(trifluoromethyl)phenyl)-N-(6-fluoropyridin-2-yl)chroman-7-sulfonamide]	0.015	> 10	
CC(C)Oc1ccc([C@H]2CCOc3cc(S(=O)(=O)Nc4cccc(F)n4)ccc32)c(-c2ccnn2C)c1 [Example 34, (S&R)—N-(6-fluoropyridin-2-yl)-4-(4-isopropoxy-2-(1-methyl-1H-pyrazol-5-yl)phenyl)chroman-7-sulfonamide]	0.057	> 10	
O=C(O)c1ccc(-c2cc(C(F)(F)F)ccc2[C@@H]2CCOc3cc(S(=O)(=O)Nc4ncc(F)cn4)ccc32)cc1 [Example-189, (S&R)-2′-(7-(N-(5-fluoropyrimidin-2-yl)sulfamoyl)chroman-4-yl)-5′-(trifluoromethyl)-[1,1′-biphenyl]-4-carboxylic acid]	1.81	> 10	
O=S(=O)(Nc1ccncn1)c1ccc2c(c1)OCC[C@H]2c1ccc(C(F)(F)F)cc1-c1ccc(F)cc1 [Example 47, (S&R)-4-(4′-Fluoro-5-(trifluoromethyl)-[1,1′-biphenyl]-2-yl)-N-(pyrimidin-4-yl)chromane-7-sulfonamide]		> 10	Nav1.7 inhibition @ 10 μM [2]: 64%
Cn1nccc1-c1cc(C(F)(F)F)ccc1[C@H]1CCOc2cc(S(=O)(=O)Nc3ncccc3F)ccc21 [Example 18, (S&R)—N-(3-Fluoropyridin-2-yl)-4-(2-(1-methyl-1H-pyrazol-5-yl)-4-(trifluoromethyl)phenyl)chromane-7-sulfonamide]	0.759	> 10	
Cc1nc(-c2cc(C(F)(F)F)ccc2[C@@H]2CCOc3cc(S(=O)(=O)Nc4ccncn4)ccc32)cs1 [Example 67, (S&R)-4-(2-(2-Methylthiazol-4-yl)-4-(trifluoromethyl)phenyl)-N-(pyrimidin-4-yl)chroman-7-sulfonamide]	0.03	> 10	
COc1cc(C(F)(F)F)ccc1[C@H]1CCOc2cc(S(=O)(=O)Nc3cccc(F)n3)ccc21 [Example-229, (S&R)—N-(6-fluoropyridin-2-yl)-4-(2-methoxy-4-(trifluoromethyl)phenyl)chroman-7-sulfonamide]	0.156		Nav1.5 % inhibition @ 10 μM [1]: 42%
O=S(=O)(Nc1ncccn1)c1ccc2c(c1)OCC[C@@H]2c1ccc(C(F)(F)F)cc1CCF (racemic) [Example 153, (R/S)-4-(2-(2-fluoroethyl)-4-(trifluoromethyl)phenyl)-N-(pyrimidin-2-yl)chroman-7-sulfonamide]	0.039		inhibition at 10 µM [1]: 35%
O=S(=O)(Nc1ncccn1)c1ccc2c(c1)OCC[C@@H]2c1ccc(C(F)(F)F)cc1CCCCF (racemic) [Example 163, (R/S)-4-(2-(4-fluorobutyl)-4-(trifluoromethyl)phenyl)-N-(pyrimidin-2-yl)chroman-7-sulfonamide]	0.042		IC50 ([1]; read-out: Nav1.5 IC50): 0.307 µM
O=S1(=O)CCN(c2cc(C(F)(F)F)ccc2[C@@H]2CCOc3cc(S(=O)(=O)Nc4ncccn4)ccc32)CC1 [Example-232, (S&R)-4-(2-(1,1-dioxidothiomorpholino)-4-(trifluoromethyl)phenyl)-N-(pyrimidin-2-yl)chroman-7-sulfonamide]		> 10	Nav1.7 inhibition @ 10 μM [2]: 36%
Cc1nc(-c2cc(C(F)(F)F)ccc2[C@@H]2CCOc3cc(S(=O)(=O)Nc4ncccn4)ccc32)cs1 [Example 63, (S&R)-4-(2-(2-Methylthiazol-4-yl)-4-(trifluoromethyl)phenyl)-N-(pyrimidin-2-yl)chroman-7-sulfonamide]	0.526	> 10	
CCCc1cc(C(F)(F)F)ccc1[C@@H]1CCOc2cc(S(=O)(=O)Nc3ncccn3)ccc21 [Example-238, (S&R)-4-(2-propyl-4-(trifluoromethyl)phenyl)-N-(pyrimidin-2-yl)chroman-7-sulfonamide]	1.76	> 10	
CC(C)Oc1ccc([C@@H]2CCOc3cc(S(=O)(=O)Nc4cccc(F)n4)ccc32)c(-c2ccnn2C)c1 [Example 33, (S&R)—N-(6-fluoropyridin-2-yl)-4-(4-isopropoxy-2-(1-methyl-1H-pyrazol-5-yl)phenyl)chroman-7-sulfonamide]	0.514	> 10	
COCCc1cc(C(F)(F)F)ccc1[C@H]1CCOc2cc(S(=O)(=O)Nc3ncccn3)ccc21 (racemic) [Example 135, (R/S)-4-(2-(2-methoxyethyl)-4-(trifluoromethyl)phenyl)-N-(pyrimidin-2-yl)chroman-7-sulfonamide]	0.708	> 10	
CS(=O)(=O)CCc1cc(C(F)(F)F)ccc1[C@@H]1CCOc2cc(S(=O)(=O)Nc3ncccn3)ccc21 [Example 83, (S&R)-4-(2-(2-(Methylsulfonyl)ethyl)-4-(trifluoromethyl)phenyl)-N-(pyrimidin-2-yl)chroman-7-sulfonamide]		> 10	Nav1.7 inhibition @ 10 μM [2]: 71%
COCCCc1cc(C(F)(F)F)ccc1[C@H]1CCOc2cc(S(=O)(=O)Nc3ncccn3)ccc21 [Example 141, (S&R)-4-(2-(3-methoxypropyl)-4-(trifluoromethyl)phenyl)-N-(pyrimidin-2-yl)chroman-7-sulfonamide]	0.069		Nav1.5 % inhibition @ 10 μM [1]: 65%
COCCCc1cc(C(F)(F)F)ccc1[C@H]1CCOc2cc(S(=O)(=O)Nc3ccncn3)ccc21 (racemic) [Example 143, (R/S)-4-(2-(3-methoxypropyl)-4-(trifluoromethyl)phenyl)-N-(pyrimidin-4-yl)chroman-7-sulfonamide]	0.016		IC50 ([1]; read-out: Nav1.5 IC50): 0.534 µM
O=S(=O)(Nc1ncccn1)c1ccc2c(c1)OCC[C@H]2c1ccc(C(F)(F)F)cc1OCCCF [Example-220, (S&R)-4-(2-(3-fluoropropoxy)-4-(trifluoromethyl)phenyl)-N-(pyrimidin-2-yl)chroman-7-sulfonamide]		> 10	IC50 ([2]; read-out: Nav1.7 IC50 (bound given in μM)): > 10 µM
Cc1nc(-c2cc(C(F)(F)F)ccc2[C@H]2CCOc3cc(S(=O)(=O)Nc4cccnn4)ccc32)cs1 [Example 70, (S&R)-4-(2-(2-Methylthiazol-4-yl)-4-(trifluoromethyl)phenyl)-N-(pyridazin-3-yl)chroman-7-sulfonamide]	0.115	> 10	
Cc1nc(-c2cc(C(F)(F)F)ccc2[C@H]2CCOc3cc(S(=O)(=O)Nc4cccc(F)n4)ccc32)ccc1F (racemic) [Example-225, (R/S)-4-(2-(5-fluoro-6-methylpyridin-2-yl)-4-(trifluoromethyl)phenyl)-N-(6-fluoropyridin-2-yl)chroman-7-sulfonamide]	0.012		IC50 ([1]; read-out: Nav1.5 IC50): 1.5 µM
O=S(=O)(Nc1cccnn1)c1ccc2c(c1)OCC[C@@H]2c1ccc(C(F)(F)F)cc1CCC(F)F (racemic) [Example-214, (R/S)-4-(2-(3,3-difluoropropyl)-4-(trifluoromethyl)phenyl)-N-(pyridazin-3-yl)chroman-7-sulfonamide]	0.002		IC50 ([1]; read-out: Nav1.5 IC50): 0.635 µM
Cn1nccc1-c1cc(C(F)(F)F)ccc1[C@H]1CCOc2cc(S(=O)(=O)Nc3cccnc3F)ccc21 [Example 28, (S&R)—N-(2-fluoropyridin-3-yl)-4-(2-(1-methyl-1H-pyrazol-5-yl)-4-(trifluoromethyl)phenyl)chroman-7-sulfonamide]	1.57	> 10	
O=C1CCCN1c1cc(C(F)(F)F)ccc1[C@H]1CCOc2cc(S(=O)(=O)Nc3cccc(F)n3)ccc21 [Example 112, (S&R)—N-(6-Fluoropyridin-2-yl)-4-(2-(2-oxopyrrolidin-1-yl)-4-(trifluoromethyl)phenyl)chroman-7-sulfonamide]	0.801		Nav1.5 % inhibition @ 10 μM [1]: 65%
CS(=O)(=O)CCc1cc(C(F)(F)F)ccc1[C@@H]1CCOc2cc(S(=O)(=O)Nc3ncc(F)cn3)ccc21 [Example 85, (S&R)—N-(5-Fluoropyrimidin-2-yl)-4-(2-(2-(methylsulfonyl)ethyl)-4-(trifluoromethyl)phenyl)chroman-7-sulfonamide]	2.72	> 10	
O=S(=O)(Nc1cccnn1)c1ccc2c(c1)OCC[C@H]2c1ccc(C(F)(F)F)cc1-c1ccc(F)cn1 [Example-199, (S&R)-4-(2-(5-fluoropyridin-2-yl)-4-(trifluoromethyl)phenyl)-N-(pyridazin-3-yl)chroman-7-sulfonamide]	0.355	> 10	
